Experimental data: patent US20110306561A1, “COMPLEMENT C3a DERIVED DIMERIC PEPTIDES AND USES THEREOF” (Yeda Research And Devlopment Co. Ltd., priority 2009, published 2011)
Read-outs that look alike come from different tables or passages of the source. Residues, ends and D or L forms follow the SMILES beside them. No end group written: not given here.

B1: C5a: complement activation product C5a, anaphylatoxin (protein, UniProt P01031 678-751, looked up)
C5a anaphylatoxin: TLQKKIEEIAAKYKHSVVKKCCYDGACVNNDETCEQRAARISLGPRCIKAFTECCVVASQLRANISHKDMQLGR
modifications: C5a anaphylatoxin

How the values were obtained:
RBL-2H3 cells [1] = type: cell-based, rat
Procedure: Mediator secretion by the rat mucosal mast cells, RBL-2H3-line, in response to stimulation by FcεRI clustering was monitored by measuring the activity of the secreted granular enzyme β-hexosaminidase. To this end, a monoclonal DNP-specific murine IgE-class antibody (rat clone 95.3, 1:10^3 dilution) was added to 15×10^6 cells in 10 ml DMEM and incubated in 96 well plates (100 μl suspension/well) for 2 hours. The cell monolayers were then washed three times with Tyrode's buffer (137 mM NaCl, 2.7 mM KCl, 1.8 mM CaCl2, 0.5 mM MgCl2, 0.4 mM NaH2PO4, 5.6 mM glucose, 10 mM Hepes, 0.1% BSA, pH 7.4.) and stimulated with BSA derivatized by an average of 11 DNP groups per molecule (DNP11-BSA) serving as an antigen. To study the effect of the peptides on antigen-induced response, RBL-2H3 cells were pre-incubated with various concentrations of the peptides for 5 minutes at room temperature before the antigen was added at the pre-determined suboptimal dose. The peptides were present throughout the assay. After 1 hour incubation at 37 ° C., 25 μl of the cell supernatants were removed and incubated with 50 μl of β-hexosaminidase substrate solution (1.3 mg/ml p-nitrophenyl-N-acetyl-β-D-glucosamine in 0.1 M sodium citrate, pH 4.5) at 37° C. for 45 minutes. The reaction was terminated by the addition of 150 μl of 0.2 M glycine, pH 10.7, and the optical density of the samples was measured at 405 nm. […] The total enzyme content of the cells/well (following lysis by triton-x-100) and the spontaneous enzyme release of the cells/well was measured in each experiment. All experiments were performed in triplicate and the results were calculated as net secreted enzyme activity (as fraction or percentage of total cell-content) in response to the stimulus.

[2] = Circular dichroism (CD) measurement of ordered structure; type: physicochemical; conditions: 100 μg/ml in PBS, room temperature; CD+/CD− not defined
Procedure: In order to assess possible structural features that characterize the active peptides, CD measurement were carried out. The CD measurements were performed on an Applied Photophysics spetrometer in 1 mm light path cell, at room temperature (about 25° C.). The peptides stock solutions were usually of 5 mg/ml in water and the measurements were done at a 100 μg/ml dilution in PBS.

RBL-2H3 cells [3] = conditions: Erdei et al. 1995, 1999; cited from earlier work

Molecule	Inhibition of secretion of 3H2 of RBL cells (IC50) (RBL-2H3 cells [1])	Effect on IgE-mediated degranulation of RBL-2H3 cells (literature) (RBL-2H3 cells [3])	other results
CC[C@H](C)[C@H](NC(=O)[C@H](Cc1ccc(O)cc1)NC(=O)[C@H](CC(N)=O)NC(=O)[C@H](CO)NC(=O)[C@H](CSSC[C@H](NC(=O)[C@@H](N)CC(=O)O)C(=O)N[C@@H](CO)C(=O)N[C@@H](CC(N)=O)C(=O)N[C@@H](Cc1ccc(O)cc1)C(=O)N[C@H](C(=O)N[C@H](C(=O)N[C@@H](CCCNC(=N)N)C(=O)O)[C@@H](C)O)[C@@H](C)CC)NC(=O)[C@@H](N)CC(=O)O)C(=O)N[C@H](C(=O)N[C@@H](CCCNC(=N)N)C(=O)O)[C@@H](C)O [Dimer A (5508)2] (HELM PEPTIDE1{D.C.S.N.Y.I.T.R}|PEPTIDE2{D.C.S.N.Y.I.T.R}$PEPTIDE1,PEPTIDE2,2:R3-2:R3$$$V2.0; N-terminus and C-terminus assumed)	15 µg/mL	–	–
CC[C@H](C)[C@H](NC(=O)[C@H](Cc1ccc(O)cc1)NC(=O)[C@H](CC(N)=O)NC(=O)[C@H](CS)NC(=O)[C@H](CS)NC(=O)[C@@H](N)CC(=O)O)C(=O)N[C@H](C(=O)N[C@@H](CCCNC(=N)N)C(=O)O)[C@@H](C)O [Monomer C3a9, reference compound] (H-DCCNYITR-OH; N-terminus and C-terminus assumed)	200 µg/mL	–	–
CC[C@H](C)[C@H](NC(=O)[C@H](Cc1ccc(O)cc1)NC(=O)[C@H](CC(N)=O)NC(=O)[C@H](CSSC[C@H](NC(=O)[C@H](CO)NC(=O)[C@@H](N)CC(=O)O)C(=O)N[C@@H](CC(N)=O)C(=O)N[C@@H](Cc1ccc(O)cc1)C(=O)N[C@H](C(=O)N[C@H](C(=O)N[C@@H](CCCNC(=N)N)C(=O)O)[C@@H](C)O)[C@@H](C)CC)NC(=O)[C@H](CO)NC(=O)[C@@H](N)CC(=O)O)C(=O)N[C@H](C(=O)N[C@@H](CCCNC(=N)N)C(=O)O)[C@@H](C)O [Dimer B (5513)2] (HELM PEPTIDE1{D.S.C.N.Y.I.T.R}|PEPTIDE2{D.S.C.N.Y.I.T.R}$PEPTIDE1,PEPTIDE2,3:R3-3:R3$$$V2.0; N-terminus and C-terminus assumed)	25 µg/mL	–	–
DCSNYITR [Monomer A (5508)]	75 µg/mL	–	–
Intact human C3a: human complement component C3a, a 77-mer polypeptide as set forth in SEQ ID NO:1	–	inhibit the IgE-mediated degranulation of RBL-2H3 cells	Circular Dichroism [2]: CD+; Inhibition of secretion of 3H2 of RBL cells (IC50) (RBL-2H3 cells [1]; suboptimal DNP11-BSA antigen stimulus, β-hexosaminidase): 2 µg/mL
B1	–	no effect	–
